Values of other authors as cited in patent US20080138383A1, “COMPOSITIONS AND METHODS FOR TREATING SEIZURES” (priority 2006, published 2008).
Like-named read-outs stand apart in the source and are kept apart here.

Assays:
[1] = in vivo

For `O=C1CN=C(c2ccccc2)c2cc(Cl)ccc2N1` [desmethyldiazepam], the “activity relative to the parent drug” value (main active metabolite versus diazepam) is given as “somewhat less active than the parent drug”.
For `O=C1Nc2ccc(Cl)cc2C(c2ccccc2Cl)=NC1O` (centres unmarked) [lorazepam], the onset of action (after intramuscular administration) is given as “up to 1 hour”, the onset of action (after intravenous administration) is given as “several minutes” and the “dose equivalent to 5 mg of diazepam” value (estimates) is given as “approximately 0.5 mg”.
For `Cc1ncc2n1-c1ccc(Cl)cc1C(c1ccccc1F)=NC2` [midazolam], the elimination half-life [1] is given as 1.5 to 3.5 h.
